# Experimental data from patent US20250074889A1, “Novel Aminobenzene Derivative Having Cancer Cell Growth Inhibitory Effect, and Preventive or Therapeutic Pharmaceutical Composition Containing Same as Active Ingredient” (Daewoong Pharmaceutical Co., Ltd., priority 2022, published 2025).
# Assays:
# Format in all cases: cell-based
# [1] = tested on: MSTO-211H human mesothelioma cell line; test: Cell growth inhibition test (CellTiter-Glo), MSTO-211H; details: MSTO-211H cells
# Description: (§1) The cell growth for the compounds prepared in Examples was measured by CellTiter-Glo® Luminescent Cell Viability (Promega, Catalog #G7571) method using NCI-H226 (addexbio), NCI-H28 (Korea Cell Line Bank) and MSTO-211H (elabscience) human mesothelioma cell lines. This evaluation method is a method in which when luciferase enzyme is activated by ATP flowing out from living cells, it reacts with a luciferin substrate, and the enzyme activity at this time is measured to confirm cell viability.
# (§2) Specifically, NCI-H226, NCI-H28, and MSTO-211H cells were prepared in 100 μL of cell culture medium (RPMI medium, 10% FBS, 1% P/S, 4.5 g/L D-Glucose, 2.383 g/L HEPES Buffer, L-Glutamine, 1.5 g/L Sodium Bicarbonate, 110 mg/L Sodium pyruvate) in a white clear bottom 96-well microplate. The prepared plate was incubated in a 5% CO2 incubator at 37° C. for 24 hours, and then the previously prepared compounds of Examples were finally treated at concentrations of 0.001, 0.01, 0.1, 1, and 10 μM, which was repeated three times for all treatment solutions. The plates treated with the compounds of Examples were incubated in a 5% CO2 incubator at 37° C. 100 μL/well of the substrate aqueous solution containing luciferin was added to a white clear-bottom 96 well microplate, thereby initiating an enzyme reaction. The reaction was performed at room temperature in the dark for 10 minutes, and the luminescence was measured using a Flexstation3 multi-mode microplate reader. In accordance with the instructions for the CellTiter-Glo™ Luminescednt Cell Viability, the luciferase enzyme activity, which represents the amount of ATP, was measured by a chemiluminescence method, and the inhibitory activity of the compounds according to the present invention was calculated. The results of each compound were analyzed using Microsoft Excel, and the IC50 values were calculated using GraphPad Prism software.
# [2] = tested on: NCI-H28 human mesothelioma cell line; test: Cell growth inhibition test (CellTiter-Glo), NCI-H28; details: NCI-H28 cells
# Description: as §1, §2
# [3] = tested on: transcription factor TEAD; test: Activity inhibition test of transcription factor TEAD (ONE-Glo luciferase, TEAD reporter-MCF7 cell line); details: Homo sapiens; TEAD Reporter-MCF7 cells, 24 hours treatment, luciferase luminescence
# Description: The transcription factor TEAD activity of the compounds prepared in Examples was measured by the ONE-Glo™ Luciferase assay (Promega, Catalog #E6110) method using the Hippo Pathway TEAD reporter-MCF7 recombinant cell line (BPS Bioscience, Catalog #60618).
# Specifically, the TEAD Reporter-MCF7 cell line contains the firefly luciferase gene whose expression is regulated under the control of TEAD response elements in the MCF7, which is a human breast cancer cell line. In the cell line, a non-phosphorylated YAP/TAZ exists in the nucleus in a non-stressed condition, which continuously induces expression of the luciferase reporter.
# TEAD Reporter-MCF7 cells were prepared in 100 μL of cell culture medium (MEM medium, 10% FBS, 1% P/S, 400 μg/mL Geneticin, 1% […], 1 mM NA pyruvate, 10 μg/mL Insulin) in a white clear bottom 96-well microplate. The prepared plate was incubated in a 5% CO2 incubator at 37° C. for 24 hours, and then the previously prepared compounds of Examples were finally treated at concentrations of 0.001, 0.01, 0.1, 1, and 10 µM, which were repeated three times for all treatment solutions. The plates treated with the compounds of Examples were incubated in a 5% CO2 incubator at 37° C. for 24 hours. 100 μL/well of the substrate aqueous solution containing luciferin was added to a white clear-bottom 96 well microplate, thereby initiating an enzyme reaction. The reaction was performed at room temperature for 5 minutes, and the luminescence (integration time 1000 ms) was measured using a Flexstation3 multi-mode microplate reader. In accordance with the instructions for the ONE-Glo™ Luciferase Assay, the luciferase enzyme activity, which represents the activity of the transcription factor TEAD, was measured by a chemiluminescence method, and the inhibitory activity of the compound according to the present invention was calculated. The results of each compound were analyzed using Microsoft Excel, and the IC50 values were calculated by GraphPad Prism software.
# [4] = tested on: NCI-H226 human mesothelioma cell line; test: Cell growth inhibition test (CellTiter-Glo), NCI-H226; details: NCI-H226 cells
# Description: as §1, §2
Compound,IC50 [1],IC50 [2],IC50 [3],IC50 [4]
"C=CC(=O)Nc1ccc(Nc2ccc(C(F)(F)F)cn2)c(-c2cn(C)cn2)c1 [Example 6, N-(3-(1-methyl-1H-imidazol-4-yl)-4-((5-(trifluoromethyl)pyridin-2-yl)amino)phenyl)acrylamide]",0.221 µM,1.38 µM,0.01 µM,0.003 µM
"C=CC(=O)Nc1ccc(Nc2ccc(C(F)(F)F)cn2)c(-c2ccncn2)c1 [Example 15, N-(3-(pyrimidin-4-yl)-4-((5-(trifluoromethyl)pyridin-2-yl)amino)phenyl)acrylamide]",0.551 µM,1.57 µM,0.0428 µM,0.0718 µM
"C=CC(=O)Nc1ccc(Nc2ncc(C(F)(F)F)cc2F)c(-c2ccccn2)c1 [Example 21, N-(4-((3-fluoro-5-(trifluoromethyl)pyridin-2-yl)amino)-3-(pyridin-2-yl)phenyl)acrylamide]",3.27 µM,2.68 µM,0.0115 µM,0.009 µM
"C=CC(=O)Nc1ccc(Nc2cc(C3CC3)c(Cl)cn2)c(-c2ccccn2)c1 [Example 30, N-(4-((5-chloro-4-cyclopropylpyridin-2-yl)amino)-3-(pyridin-2-yl)phenyl)acrylamide]",2.21 µM,8.79 µM,0.0316 µM,0.01 µM
"C=CC(=O)Nc1ccc(Nc2ncc(C(F)(F)F)cc2F)c(-c2cn(C)cn2)c1 [Example 36, N-(4-((3-fluoro-5-(trifluoromethyl)pyridin-2-yl)amino)-3-(1-methyl-1H-imidazol-4-yl)phenyl)acrylamide]",> 10 µM,> 10 µM,0.027 µM,0.012 µM
"C=CC(=O)Nc1ccc(Nc2cc(Cl)c(C(F)(F)F)cn2)c(-c2ccn(C)n2)c1 [Example 37, N-(4-((4-chloro-5-(trifluoromethyl)pyridin-2-yl)amino)-3-(1-methyl-1H-pyrazol-3-yl)phenyl)acrylamide]",3.75 µM,1.1 µM,0.0045 µM,0.013 µM
"C=CC(=O)Nc1cnc(Nc2ccc(C(F)(F)F)cn2)c(-c2ccccn2)c1 [Example 39, N-(2′-((5-(trifluoromethyl)pyridin-2-yl)amino)-[2,3′-bipyridin]-5′-yl)acrylamide]",0.194 µM,3.28 µM,0.0403 µM,0.0158 µM
"C=CC(=O)Nc1ccc(Nc2ncc(C(F)(F)F)cc2Cl)c(-c2ccn(C)n2)c1 [Example 53, N-(4-((3-chloro-5-(trifluoromethyl)pyridin-2-yl)amino)-3-(1-methyl-1H-pyrazol-3-yl)phenyl)acrylamide]",8.24 µM,1.67 µM,0.0307 µM,0.0628 µM

# Continued, values first:
IC50 [1],IC50 [2],IC50 [3],IC50 [4],Compound
0.197 µM,2.55 µM,0.0215 µM,0.02 µM,"C=CC(=O)Nc1cc(F)c(Nc2ccc(C(F)(F)F)cn2)c(-c2ccccn2)c1 [Example 29, N-(3-fluoro-5-(pyridin-2-yl)-4-((5-(trifluoromethyl)pyridin-2-yl)amino)phenyl)acrylamide]"
0.105 µM,3.02 µM,0.0053 µM,0.003 µM,"C=CC(=O)Nc1ccc(Nc2ccc(C(F)(F)F)cc2)c(-c2cn(C)cn2)c1 [Example 35, N-(3-(1-methyl-1H-imidazol-4-yl)-4-((4-(trifluoromethyl)phenyl)amino)phenyl)acrylamide]"
1.13 µM,5.54 µM,0.015 µM,0.0066 µM,"C=CC(=O)Nc1ccc(Nc2ccc(C(F)(F)F)c(F)c2)c(-c2cn(C)cn2)c1 [Example 40, N-(4-((3-fluoro-4-(trifluoromethyl)phenyl)amino)-3-(1-methyl-1H-imidazol-4-yl)phenyl)acrylamide]"
0.167 µM,1.25 µM,0.0128 µM,0.065 µM,"C=CC(=O)Nc1ccc(Nc2cc(Cl)c(Cl)cn2)c(-c2ccn(C)n2)c1 [Example 55, N-(4-((4,5-dichloropyridin-2-yl)amino)-3-(1-methyl-1H-pyrazol-3-yl)phenyl)acrylamide]"
